Experimental data reported in PubChem BioAssay (NCI).
Values joined by “and” are separate entries in the source; they are usually repeats but may differ in a detail not shown here. Equal entries are not always repeated.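 48-hour exposure; five concentrations; linearly interpolated endpoints. Abbreviation: GI50, concentration required for 50% inhibition of growth. TGI is the concentration that stops growth completely.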

Legend:
Experiment in all cases: NCI-60 cell line screen, 48 h
[1] = test system: HCC-2998 colon
[2] = test system: HCT-116 colon
[3] = test system: HOP-92 NSCLC
[4] = test system: HT29 colon
[5] = test system: MALME-3M melanoma
[6] = test system: OVCAR-5 ovarian
[7] = test system: PC-3 prostate
[8] = test system: SF-539 CNS
[9] = test system: SK-MEL-28 melanoma
[10] = test system: BT-549 breast

| SMILES | GI50 [1] [µM] | TGI [1] [µM] | GI50 [2] [µM] | TGI [2] [µM] | GI50 [3] [µM] | TGI [3] [µM] | GI50 [4] [µM] | TGI [4] | GI50 [5] [µM] | TGI [5] [µM] | GI50 [6] [µM] | TGI [6] [µM] | GI50 [7] [µM] | TGI [7] [µM] | GI50 [8] [µM] | TGI [8] | GI50 [9] [µM] | TGI [9] | TGI [10] [µM] | GI50 [10] [µM] |
| --- | --- | --- | --- | --- | --- | --- | --- | --- | --- | --- | --- | --- | --- | --- | --- | --- | --- | --- | --- | --- |
| COc1cnc2c(c1)C(=O)c1c-2n(CCCN2CCN(C)CC2)c(=O)c2cc(Cl)ccc12 | 11.3 | 26.8 | 0.982 | > 100 | 4.68 | 29.8 | 1.37 | > 100 µM | 5.77 | 19.5 | 3.56 | 13.3 | 3.6 | 65.7 | 2.15 | 5.31 µM | 2.3 | 5.04 µM |  |  |
| CCOC(=O)C1=C(C)N(NC(=O)c2ccccc2)C2(O)CCCC12C(=O)OCC (stereo not given) |  | > 100 |  | > 100 |  |  |  | > 100 µM |  | > 100 |  | > 100 |  |  |  | > 100 µM |  | > 100 µM |  |  |
| Nc1ccn([C@@H]2C=C(CO)[C@@H](O)[C@H]2O)c(=O)n1 |  |  |  |  |  |  |  | 394 µM and > 625 µM |  |  | 0.13 |  |  | 500 |  | 266 µM and > 625 µM |  | 500 µM and > 625 µM | 113 |  |
| CC(C)=CCC/C(C)=C/CC/C(=C/COP(=O)(OCc1ccc([N+](=O)[O-])o1)N(C)CCCCCl)C(C)(C)C (stereo not given) | 0.0486 | 2.29 | 2.04 | 11.8 | 12.8 | 25.4 | 12.5 | 38.9 µM |  |  | 16.2 | 32.8 | 0.43 | 15.1 | 4.25 | 10.6 µM | 17.1 | 37.5 µM |  |  |
| CSC(=S)NNC(=O)c1ccncc1 |  | 38.1 |  | 38.3 |  | 60.8 |  | 37.8 µM |  | 35.3 |  | 48.7 |  |  |  | 48.9 µM |  | 44 µM |  |  |
| O=C1c2ccccc2C(=O)c2nc(-c3ccccc3)c(-c3ccccc3)nc21 |  | > 100 |  | > 100 |  | > 100 |  | > 100 µM |  | > 100 |  | > 100 |  |  |  | > 100 µM |  | > 100 µM |  |  |
| COC(=O)C1C(=O)O[C@@H](c2ccc(OC)cc2OC)C1C(=O)OC (stereo not given in full) |  | > 100 |  | > 100 |  | > 100 |  | > 100 µM |  | > 100 |  | > 100 |  |  |  | > 100 µM |  | > 100 µM |  |  |
| O=C(O)/C(Cl)=C(\Cl)C(=O)Nc1ccccc1 |  | > 100 |  | > 100 |  | > 100 |  | > 100 µM |  | > 100 |  | > 100 |  |  |  | > 100 µM |  | > 100 µM |  |  |
| CC1C(=O)N(C)C2(CO)C(=O)O[C@H](C)C12O (stereo not given in full) |  | > 100 |  | > 100 |  |  |  | > 100 µM |  | > 100 |  | > 100 |  |  |  | > 100 µM |  | > 100 µM |  |  |
| CCC[CH2][Sn]([CH2]CCC)([S]C1=NCCS1)[S]C1=NCCS1 | 0.654 | 1.94 | 0.615 | 1.91 | 0.227 | 0.529 | 1.07 | 2.58 µM | 0.157 | 0.555 | 2.29 | 3.78 |  |  | 0.164 | 0.449 µM | 0.146 | 0.353 µM |  |  |
| CC1OC(O)CC(OC(=O)c2ccccc2)C1OC(=O)c1ccccc1 (stereo not given) |  | > 100 |  | 23.3 |  | 35 |  | 42.2 µM |  | 30.2 |  | > 100 |  |  |  | 31.7 µM |  | 29.6 µM |  |  |
| Cc1ccc(S(=O)(=O)N/N=C(\C(=O)Nc2cccc([N+](=O)[O-])c2)c2nc3ccc([N+](=O)[O-])cc3[nH]c2=O)cc1 |  | 69.9 |  | > 100 |  | > 100 |  | > 100 µM |  | > 100 |  | > 100 |  |  |  | > 100 µM |  | > 100 µM |  |  |
| O=C(C=Nc1ccccc1C(=O)[O-])c1cccs1.O=C(C=Nc1ccccc1C(=O)[O-])c1cccs1.[Cu+2] |  | > 100 |  | > 100 |  | > 100 |  | > 100 µM |  | > 100 |  | > 100 |  |  |  |  |  | > 100 µM |  |  |
| CCCCCCCCCC(=O)OCC1OC(n2cc(F)c(=O)[nH]c2=O)C(N)C(OC(=O)CCCCCCCCC)C1O (stereo not given) |  | 33.3 |  | 32.1 |  | 37 |  | 35.8 µM |  | 35.2 |  |  |  |  |  | 33.7 µM |  | 30.4 µM |  |  |
| CCC(=C(c1ccc(OCc2ccccc2)cc1)c1ccc(OCc2ccccc2)cc1)c1ccc(OC)cc1 |  | > 100 |  | > 100 |  | > 100 |  | > 100 µM |  | > 100 |  | > 100 |  |  |  | > 100 µM |  | > 100 µM |  |  |
| O=C(CC1(O)C(=O)Nc2c(Cl)cc(Cl)cc21)c1ccc2ccccc2c1 (stereo not given) |  |  |  | 13.4 |  | 36.2 |  | 18.5 µM |  | 19.7 |  | 30.3 |  |  |  | 21 µM |  | 24.3 µM |  |  |
| C=CCN(N=O)C(=O)N(CCC)CCCCC(NC(C)=O)C(=O)NCc1ccccc1 (stereo not given) |  |  |  |  |  | > 100 |  | 83.6 µM |  | > 100 |  | > 100 |  |  |  | > 100 µM |  | > 100 µM |  |  |

| SMILES | GI50 [1] [µM] | TGI [1] [µM] | GI50 [2] [µM] | TGI [2] [µM] | GI50 [3] [µM] | TGI [3] [µM] | GI50 [4] [µM] | TGI [4] | GI50 [5] [µM] | TGI [5] [µM] | GI50 [6] [µM] | TGI [6] [µM] | GI50 [7] [µM] | TGI [7] [µM] | GI50 [8] [µM] | TGI [8] | GI50 [9] [µM] | TGI [9] | TGI [10] [µM] | GI50 [10] [µM] |
| --- | --- | --- | --- | --- | --- | --- | --- | --- | --- | --- | --- | --- | --- | --- | --- | --- | --- | --- | --- | --- |
| CCN(CC)CCOc1cc2c(C(=O)OC)c(C)oc2cc1C(C)=O | 15.7 | 29.3 |  |  |  |  | 17 | 94.9 µM |  |  | 15.4 | 29.1 | 3.97 | 13.7 |  |  |  |  | 22.8 | 7.84 |
| C[C@]12CCC(=O)C=C1CC[C@@H]1[C@@H]2CC[C@]2(C)C(=O)/C(=C/c3cccc(OCCN4CCOCC4)c3)C[C@@H]12 |  |  | 3.14 | 13.4 | 10.2 | 31.7 | 2.87 | 16.2 µM | 14.7 | 36 | 13.4 | 34 | 3.15 | 29.2 | 10.5 | 23.7 µM | 11.9 | 29.8 µM |  |  |
| COc1ccc2c(c1)[n+]([O-])c(-c1nc3ccccc3s1)c(N)[n+]2[O-] |  |  |  | > 100 |  | > 100 |  | > 100 µM |  | > 100 |  | > 100 |  |  |  | > 100 µM |  | > 100 µM |  |  |
| COC(=O)C1=CC2OC1(C)C1(CC1)C2=O (stereo not given) |  | 34.2 |  | 27.8 |  |  |  | 25.5 µM |  | 27.8 |  | 57.4 |  |  |  | 32.1 µM |  |  |  |  |
| COc1ccc(OC)c2cc(C3(C)SCCCS3)ccc12 |  | > 100 |  | > 100 |  |  |  | > 100 µM |  | > 100 |  | > 100 |  |  |  | > 100 µM |  | > 100 µM |  |  |
| O=C(CC(=O)C(F)(F)F)c1csc2ccccc12 |  | > 100 |  | > 100 |  |  |  |  |  | 67.6 |  | > 100 |  |  |  | > 100 µM |  | > 100 µM |  |  |
| CC12CC3CC(C)(C1)CC(N=[N+]=[N-])(C3)C2 |  | > 100 |  | > 100 |  | > 100 |  | > 100 µM |  | > 100 |  | > 100 |  |  |  | > 100 µM |  | > 100 µM |  |  |
| COC(=O)C1=CC2OC13CC1CCC3(C2=O)C1(C)C (stereo not given) |  | 27.8 |  | 23.5 |  |  |  | 27.7 µM |  | 28.5 |  | 33.2 |  |  |  | 27.3 µM |  |  |  |  |
| Cc1ccc(C2=NO[C@@H]3C(=O)N(c4ccc(Cc5ccc(N6C(=O)[C@H]7C(c8ccc(C)cc8)=NO[C@H]7C6=O)cc5)cc4)C(=O)[C@H]23)cc1 |  | > 100 |  |  |  | > 100 |  | > 100 µM |  | > 100 |  | > 100 |  |  |  | > 100 µM |  | > 100 µM |  |  |
| CN=S(=O)(C[C@]1(O)CC2OC1C1OC(C)(C)OC21)c1ccccc1 (stereo not given in full) |  | > 100 |  | > 100 |  | > 100 |  | > 100 µM |  | > 100 |  | > 100 |  |  |  | > 100 µM |  | > 100 µM |  |  |
| CC(=O)Nc1ccc(/C=C/C(=O)c2sc(C(N)=S)nc2C)cc1 |  | > 100 |  |  |  | > 100 |  | > 100 µM |  | > 100 |  | > 100 |  |  |  | > 100 µM |  | > 100 µM |  |  |
| COc1ccccc1NC(=O)C1=C(C)NC(C)=C(C(=O)Nc2ccccc2OC)C1c1ccccc1OC |  | > 100 |  | > 100 |  | > 100 |  | > 100 µM |  | > 100 |  | > 100 |  |  |  | > 100 µM |  | > 100 µM |  |  |
| Cc1c(Cl)ccc2c1NC(=O)C2(O)C1Cc2ccccc2C1=O (stereo not given) |  | > 100 |  | > 100 |  | > 100 |  | > 100 µM |  | > 100 |  | > 100 |  |  |  | > 100 µM |  | > 100 µM |  |  |
| COC(=O)C(=O)C(C(=O)C(=O)Nc1cc([N+](=O)[O-])ccc1[N+](=O)[O-])c1nc2ccc(C(=O)c3ccccc3)cc2[nH]c1=O (stereo not given) |  | > 100 |  | > 100 |  |  |  | > 100 µM |  | > 100 |  | 70.5 |  |  |  | > 100 µM |  |  |  |  |
| CCN(CC)c1ccc2c(c1)N=C1N=CC=CN1C2(c1ccc(N(C)C)cc1)c1ccc(N(C)C)cc1 |  | 13.2 |  | 11.8 |  | 8.6 |  | 10.6 µM |  | 27.4 |  | 27.4 |  |  |  | 28.6 µM |  | 26 µM |  |  |
| O=C(NCC#CCO)C(F)(F)F |  | > 100 |  | > 100 |  |  |  | > 100 µM |  | > 100 |  | > 100 |  |  |  | > 100 µM |  | > 100 µM |  |  |
| Nc1nc(N)c(-c2ccc(Cl)cc2)c(CCC(=O)Nc2cccc(C(F)(F)F)c2)n1 |  | > 100 |  | > 100 |  |  |  | > 100 µM |  | > 100 |  | > 100 |  |  |  | > 100 µM |  | > 100 µM |  |  |
